The NIST ThermoML archive (doi:10.1016/j.fluid.2017.02.012)

Details: Liquid, Pendant drop shape

CCCCCCCCCCCCCCCCC [heptadecane] + O=C=O
Details | interfacial tension [mN/m]
313.15 K, 390 kPa | 25.11
313.15 K, 1300 kPa | 22.73
313.15 K, 2350 kPa | 20.26
313.15 K, 3500 kPa | 17.14
313.15 K, 5000 kPa | 13.27
313.15 K, 6500 kPa | 9.3
313.15 K, 8000 kPa | 5.34
313.15 K, 9000 kPa | 2.7
333.15 K, 750 kPa | 22.56
333.15 K, 1860 kPa | 20.55
333.15 K, 2830 kPa | 18.33
333.15 K, 3810 kPa | 16.6
333.15 K, 4850 kPa | 14.57
333.15 K, 5930 kPa | 12.56
333.15 K, 7090 kPa | 10.2
333.15 K, 8280 kPa | 8.07
333.15 K, 9630 kPa | 5.7
333.15 K, 10600 kPa | 4.26
353.15 K, 940 kPa | 19.98
353.15 K, 1910 kPa | 18.81
353.15 K, 3030 kPa | 17.6
353.15 K, 4000 kPa | 16.02
353.15 K, 5220 kPa | 14.29
353.15 K, 6110 kPa | 12.99
353.15 K, 7210 kPa | 11.23
353.15 K, 8580 kPa | 9.36
353.15 K, 9500 kPa | 8.34
353.15 K, 10740 kPa | 6.77
353.15 K, 12020 kPa | 5.27
353.15 K, 13180 kPa | 4.15
373.15 K, 920 kPa | 19.2
373.15 K, 2390 kPa | 17.81
373.15 K, 4000 kPa | 15.65
373.15 K, 5490 kPa | 13.83
373.15 K, 7260 kPa | 11.8
373.15 K, 9000 kPa | 9.93
373.15 K, 10800 kPa | 8.1
373.15 K, 12560 kPa | 6.21
373.15 K, 13470 kPa | 5.47
373.15 K, 14640 kPa | 4.43
393.15 K, 1190 kPa | 18.38
393.15 K, 4320 kPa | 14.69
393.15 K, 6780 kPa | 12.43
393.15 K, 10600 kPa | 8.46
393.15 K, 13920 kPa | 5.87

CCCCCCCCC [nonane] + O=C=O
Details | interfacial tension [mN/m]
313.15 K, 500 kPa | 20.26
313.15 K, 1490 kPa | 17.76
313.15 K, 2460 kPa | 15.19
313.15 K, 3500 kPa | 12.77
313.15 K, 4500 kPa | 10.11
313.15 K, 5490 kPa | 7.35
313.15 K, 6620 kPa | 4.28
313.15 K, 7290 kPa | 2.5
333.15 K, 390 kPa | 18.9
333.15 K, 1440 kPa | 16.61
333.15 K, 2400 kPa | 14.76
333.15 K, 3320 kPa | 12.98
333.15 K, 4460 kPa | 11.05
333.15 K, 5400 kPa | 9.01
333.15 K, 6220 kPa | 7.55
333.15 K, 7290 kPa | 5.61
333.15 K, 8230 kPa | 3.83
353.15 K, 1080 kPa | 16.12
353.15 K, 2100 kPa | 14.28
353.15 K, 3090 kPa | 12.81
353.15 K, 4130 kPa | 11
353.15 K, 5130 kPa | 9.64
353.15 K, 6030 kPa | 8.29
353.15 K, 6990 kPa | 6.95
353.15 K, 8000 kPa | 5.67
353.15 K, 9400 kPa | 3.85
373.15 K, 1060 kPa | 14.6
373.15 K, 2110 kPa | 13.15
373.15 K, 3060 kPa | 11.85
373.15 K, 4190 kPa | 10.43
373.15 K, 5200 kPa | 9.22
373.15 K, 6210 kPa | 7.93
373.15 K, 7000 kPa | 7.04
373.15 K, 7990 kPa | 6.08
373.15 K, 9340 kPa | 4.61
373.15 K, 10460 kPa | 3.58
393.15 K, 940 kPa | 13.32
393.15 K, 3080 kPa | 10.78
393.15 K, 5700 kPa | 8.17
393.15 K, 9300 kPa | 4.7
393.15 K, 11410 kPa | 2.98

CCCCCCCCCCCCCCC [pentadecane] + O=C=O
Details | interfacial tension [mN/m]
313.15 K, 430 kPa | 21.65
313.15 K, 1100 kPa | 20.48
313.15 K, 2090 kPa | 18.38
313.15 K, 3090 kPa | 16.15
313.15 K, 4080 kPa | 14.04
313.15 K, 5090 kPa | 11.41
313.15 K, 6090 kPa | 8.91
313.15 K, 6890 kPa | 6.25
313.15 K, 8060 kPa | 2.69
333.15 K, 360 kPa | 20.84
333.15 K, 1380 kPa | 19.61
333.15 K, 2390 kPa | 17.57
333.15 K, 3490 kPa | 15.7
333.15 K, 4330 kPa | 14.41
333.15 K, 5290 kPa | 12.81
333.15 K, 5990 kPa | 11.75
333.15 K, 7290 kPa | 9.17
333.15 K, 8400 kPa | 6.86
333.15 K, 9860 kPa | 4.22
353.15 K, 580 kPa | 19.83
353.15 K, 1630 kPa | 18.11
353.15 K, 2790 kPa | 17.01
353.15 K, 3610 kPa | 15.63
353.15 K, 4630 kPa | 14.2
353.15 K, 5700 kPa | 12.85
353.15 K, 6630 kPa | 11.53
353.15 K, 7720 kPa | 9.79
353.15 K, 8560 kPa | 8.69
353.15 K, 9490 kPa | 7.32
353.15 K, 10730 kPa | 5.87
353.15 K, 11560 kPa | 4.82
353.15 K, 12000 kPa | 4.24
373.15 K, 1080 kPa | 18.21
373.15 K, 2060 kPa | 16.61
373.15 K, 3240 kPa | 15.25
373.15 K, 4280 kPa | 14.53
373.15 K, 5390 kPa | 13.01
373.15 K, 6240 kPa | 12.08
373.15 K, 7340 kPa | 10.81
373.15 K, 8340 kPa | 9.6
373.15 K, 9400 kPa | 8.42
373.15 K, 10490 kPa | 7.37
373.15 K, 12060 kPa | 5.74
373.15 K, 13190 kPa | 4.64
373.15 K, 13960 kPa | 4.06
393.15 K, 3280 kPa | 14.72
393.15 K, 5680 kPa | 12.36
393.15 K, 8600 kPa | 9.58
393.15 K, 11400 kPa | 6.86
393.15 K, 14720 kPa | 4.22

CCCCCCCCCCCCC [tridecane] + O=C=O
Details | interfacial tension [mN/m]
313.15 K, 550 kPa | 22.3
313.15 K, 2100 kPa | 18.58
313.15 K, 3240 kPa | 15.83
313.15 K, 4300 kPa | 13.06
313.15 K, 5300 kPa | 10.43
313.15 K, 5940 kPa | 8.57
313.15 K, 7490 kPa | 3.8
333.15 K, 330 kPa | 21.41
333.15 K, 1360 kPa | 19.62
333.15 K, 2440 kPa | 17.54
333.15 K, 3580 kPa | 15.34
333.15 K, 5410 kPa | 11.87
333.15 K, 5930 kPa | 10.74
333.15 K, 6830 kPa | 9.08
333.15 K, 8000 kPa | 6.91
333.15 K, 8780 kPa | 5.38
333.15 K, 9410 kPa | 4.25
333.15 K, 10010 kPa | 3.24
353.15 K, 440 kPa | 19.97
353.15 K, 1760 kPa | 17.82
353.15 K, 3190 kPa | 15.75
353.15 K, 4830 kPa | 13.15
353.15 K, 5700 kPa | 11.84
353.15 K, 6050 kPa | 11.5
353.15 K, 7500 kPa | 9.24
353.15 K, 8990 kPa | 7.3
353.15 K, 10030 kPa | 5.75
353.15 K, 10880 kPa | 4.76
353.15 K, 11770 kPa | 3.76
373.15 K, 540 kPa | 18.67
373.15 K, 2380 kPa | 16.03
373.15 K, 4400 kPa | 13.13
373.15 K, 5790 kPa | 11.68
373.15 K, 8100 kPa | 9.03
373.15 K, 9910 kPa | 6.93
373.15 K, 12260 kPa | 4.57
373.15 K, 13710 kPa | 3.32
393.15 K, 410 kPa | 17.04
393.15 K, 4630 kPa | 12.6
393.15 K, 8730 kPa | 8.27
393.15 K, 13580 kPa | 4.32

CCCCCCCCCCC [undecane] + O=C=O
Details | interfacial tension [mN/m]
313.15 K, 340 kPa | 22.19
313.15 K, 1410 kPa | 19.54
313.15 K, 2530 kPa | 16.91
313.15 K, 3590 kPa | 14.36
313.15 K, 4700 kPa | 11.15
313.15 K, 5630 kPa | 8.47
313.15 K, 6540 kPa | 5.82
313.15 K, 7100 kPa | 3.75
333.15 K, 350 kPa | 20.59
333.15 K, 1700 kPa | 17.96
333.15 K, 3240 kPa | 14.87
333.15 K, 4730 kPa | 12.15
333.15 K, 5810 kPa | 9.86
333.15 K, 7190 kPa | 7.45
333.15 K, 8000 kPa | 5.82
333.15 K, 8910 kPa | 4.12
353.15 K, 440 kPa | 18.64
353.15 K, 1800 kPa | 16.41
353.15 K, 3430 kPa | 14.14
353.15 K, 4930 kPa | 11.74
353.15 K, 6480 kPa | 9.53
353.15 K, 7890 kPa | 7.53
353.15 K, 8940 kPa | 5.99
353.15 K, 10190 kPa | 4.39
373.15 K, 410 kPa | 17.05
373.15 K, 1880 kPa | 15.22
373.15 K, 3100 kPa | 13.86
373.15 K, 4410 kPa | 12.26
373.15 K, 5910 kPa | 10.19
373.15 K, 7020 kPa | 8.84
373.15 K, 8600 kPa | 7.05
373.15 K, 9900 kPa | 5.73
373.15 K, 11680 kPa | 3.99
393.15 K, 530 kPa | 15.69
393.15 K, 3300 kPa | 12.38
393.15 K, 5820 kPa | 9.76
393.15 K, 9300 kPa | 6.53
393.15 K, 12810 kPa | 3.55
